Like-named read-outs stand apart in the source and are kept apart here.
How the values were obtained:
[1] = biological target: human STING (HAQ) (Homo sapiens, UniProt Q86WV6, G230A/H232R/R293Q); test: biochemical; format: binding; settings: for ΔTm at 100 µM: read-out: DSF huSTING (HAQ) ΔTm (° C.)
Protocol: (§1) DSF monitors thermal unfolding of protein in the presence of a fluorescent dye and is typically performed using a real-time PCR instrument. The temperature at which a protein unfolds is measured by an increase in the fluorescence of a dye with affinity for hydrophobic parts of the protein that are gradually exposed during unfolding. The fluorescence of the dye is quenched in aqueous environments, but when the dye associates with hydrophobic sites on the unfolded protein, its fluorescence increases. The fluorescence intensity is plotted as a function of the temperature, generating a sigmoidal curve that can be described by a two-state transition. The inflection point of the transition curve (Tm) is calculated using simple equations such as that of Boltzman.
(§2) Sealed plates were then placed into a Bio-Rad CFX96/C1000 thermocycler and FRET scanning mode (λ^excitation of 490 nm and reads at λ^emission of 570 nm) was used to measure fluorescence intensity. […] The melting point (Tm) obtained for STING protein alone was subtracted from Tm obtained for protein incubated with ligand to generate ΔTm values listed in the table below.
(§3) These additional compounds were tested as described above, however the protein concentration was 2 μM.

[2] = biological target: huSTING (HAQ) (Homo sapiens (Human), UniProt Q86WV6, G230A/H232R/R293Q/R71H); test: THP-1 reporter cell line assay, THP-1 STING Lucia ISG cells; format: cell-based
[3] = biological target: T1, huSTING (WT) (Homo sapiens (Human), UniProt Q86WV6, H232R); test: THP-1 reporter cell line assay, THP-1-Dual KI-hSTING-R232 cells; format: cell-based
Target sequence in this assay (Q86WV6 whole entry H232R): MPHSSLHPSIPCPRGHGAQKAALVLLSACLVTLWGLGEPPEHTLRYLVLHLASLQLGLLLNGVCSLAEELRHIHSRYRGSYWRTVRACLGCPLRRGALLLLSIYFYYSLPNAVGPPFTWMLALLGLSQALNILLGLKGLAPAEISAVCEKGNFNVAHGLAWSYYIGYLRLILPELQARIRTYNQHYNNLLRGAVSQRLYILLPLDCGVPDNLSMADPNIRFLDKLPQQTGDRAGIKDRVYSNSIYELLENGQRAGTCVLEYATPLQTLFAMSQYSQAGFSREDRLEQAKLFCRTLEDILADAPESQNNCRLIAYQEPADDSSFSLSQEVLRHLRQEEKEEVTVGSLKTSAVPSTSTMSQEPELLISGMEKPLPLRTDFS

[4] = biological target: T1, huSTING (WT); test: Differential scanning fluorimetry (DSF), huSTING (WT); format: binding; settings: for ΔTm at 100 µM: read-out: DSF huSTING (WT) ΔTm (° C.)
Protocol: as §1, §2, §3
Target sequence in this assay (Q86WV6 other isoform, or with tags, fused parts or gaps, stated change not applied): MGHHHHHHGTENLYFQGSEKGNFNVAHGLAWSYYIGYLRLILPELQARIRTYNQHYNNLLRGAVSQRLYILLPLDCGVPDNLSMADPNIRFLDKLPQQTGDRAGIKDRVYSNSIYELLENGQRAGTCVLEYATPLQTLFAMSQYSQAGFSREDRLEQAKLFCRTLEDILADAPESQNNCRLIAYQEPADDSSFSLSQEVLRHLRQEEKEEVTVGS

[5] = THP-1 STING Lucia ISG cells, 24 h, top concentration 50 μM, read-out: Cellular EC50 huSTING (HAQ)
[6] = read-out: Cellular EC50 huSTING (WT)
[7] = 1 μM protein, compound at 100 μM
[8] = compound 100 μM, protein concentration 2 μM
[9] = THP-1 STING Lucia ISG cells, modified method, top concentration 40 μM, pin tool, EnVision, read-out: Cellular EC50 huSTING (HAQ)

Chain of human STING (HAQ) (Q86WV6 whole entry G230A/H232R/R293Q, looked up): as the sequence (Q86WV6 whole entry H232R) above, with G230A, R293Q counted along it
Chain of huSTING (HAQ) (Q86WV6 whole entry R71H/G230A/H232R/R293Q): as the sequence (Q86WV6 whole entry H232R) above, with R71H, G230A, R293Q counted along it

Row | SMILES | ΔTm at 100 µM [1] | EC50 [2, 5] | EC50 [3, 6] | ΔTm at 100 µM [4, 7] | DSF huSTING (WT) ΔTm (° C.) [4, 8] | EC50 [2, 9] | further results
1 | CCOC(=O)c1sc2cccc(F)c2c1COc1c(F)cc(C(N)=O)cc1F [Example 2, Ethyl 3-((4-carbamoyl-2,6-difluorophenoxy)methyl)-4-fluorobenzo[b]thiophene-2-carboxylate] | 1.44 °C | 2.07 µM | > 50 µM |  |  |  | 
2 | CC(C)OC(=O)c1sc2cccc(F)c2c1COc1ccc(C(N)=O)cc1 [Example 4, Isopropyl 3-((4-carbamoylphenoxy)methyl)-4-fluorobenzo[b]thiophene-2-carboxylate] | 0.13 °C | 2.58 µM | > 50 µM |  |  |  | 
3 | CCOC(=O)c1sc2ccccc2c1COc1ccc(C(N)=O)cc1 [Example 5, Ethyl 3-((4-carbamoylphenoxy)methyl)benzo[b]thiophene-2-carboxylate] | -0.48 °C | 8.22 µM | > 50 µM | 0.07 °C |  |  | 
4 | CCOC(=O)c1sc2cccc(Cl)c2c1COc1ccc(C(N)=O)cc1 [Example 7, Ethyl 3-((4-carbamoylphenoxy)methyl)-4-chlorobenzo[b]thiophene-2-carboxylate] | 0.26 °C | 0.705 µM | 8.94 µM |  |  |  | 
5 | NC(=O)c1ccc(OCc2c(C(=O)O)sc3cccc(Cl)c23)cc1 [Example 8, 3-((4-Carbamoylphenoxy)methyl)-4-chlorobenzo[b]thiophene-2-carboxylic acid] |  |  |  |  |  |  | DSF huSTING (HAQ) ΔTm (° C.) [1, 7]: 13.96 °C
6 | CCOC(=O)c1sc2cc(Cl)ccc2c1COc1ccc(C(N)=O)cc1 [Example 9, Ethyl 3-((4-carbamoylphenoxy)methyl)-6-chlorobenzo[b]thiophene-2-carboxylate] | 0.71 °C | > 50 µM | > 50 µM | 0.51 °C |  |  | 
7 | CCOC(=O)c1sc2c(Cl)cccc2c1COc1ccc(C(N)=O)cc1 [Example 11, Ethyl 3-((4-carbamoylphenoxy)methyl)-7-chlorobenzo[b]thiophene-2-carboxylate] | 0.29 °C | 16.2 µM | 25.6 µM | 0.13 °C |  |  | 
8 | CCOC(=O)c1sc2ccc(Cl)cc2c1COc1ccc(C(N)=O)cc1 [Example 13, Ethyl 3-((4-carbamoylphenoxy)methyl)-5-chlorobenzo[b]thiophene-2-carboxylate] | -0.15 °C | > 50 µM | > 50 µM | -0.59 °C |  |  | 
9 | NC(=O)c1ccc(OCc2c(C(=O)O)sc3cccc(Cl)c23)c(F)c1F [Example 67, 3-((4-Carbamoyl-2,3-difluorophenoxy)methyl)-4-chlorobenzo[b]thiophene-2-carboxylic acid] | 11.1 °C | > 50 µM | > 50 µM | 3.04 °C |  |  | 
10 | NC(=O)c1cc(F)c(OCc2c(C(=O)O)sc3cccc(Cl)c23)c(F)c1 [Example 69, 3-((4-Carbamoyl-2,6-difluorophenoxy)methyl)-4-chlorobenzo[b]thiophene-2-carboxylic acid] |  |  |  |  |  |  | DSF huSTING (HAQ) ΔTm (° C.) [1, 7]: 22.08 °C; ΔTm at 100 µM [4]: 9.49 °C
11 | CC(C)(C)C(=O)OCOC(=O)c1sc2cccc(Cl)c2c1COc1ccc(C(N)=O)cc1 [Example 74, (Pivaloyloxy)methyl 3-((4-carbamoylphenoxy)methyl)-4-chlorobenzo[b]thiophene-2-carboxylate] |  | 1.05 µM | 2.47 µM | -4.22 °C |  |  | 
12 | NC(=O)c1ccc(NCc2c(C(=O)O)sc3cccc(Cl)c23)cc1 [Example 76, 3-(((4-Carbamoylphenyl)amino)methyl)-4-chlorobenzo[b]thiophene-2-carboxylic acid] | 2.43 °C | 2.68 µM | 0.217 µM | -2.72 °C |  |  | 
13 | Cc1cccc2sc(C(=O)O)c(COc3ccc(C(N)=O)cc3)c12 [Example 78, 3-((4-Carbamoylphenoxy)methyl)-4-methylbenzo[b]thiophene-2-carboxylic acid] | 16 °C | > 50 µM | > 50 µM | 6.62 °C |  |  | 
14 | NC(=O)c1cc(F)c(OCc2c(C(=O)O)sc3c(F)ccc(F)c23)c(F)c1 [Example 80, 3-((4-Carbamoyl-2,6-difluorophenoxy)methyl)-4,7-difluorobenzo[b]thiophene-2-carboxylic acid] | 14.9 °C | 38.6 µM | > 50 µM | 6.69 °C |  |  | 
15 | NC(=O)c1ccc(OCc2c(C(=O)O)sc3c(F)ccc(F)c23)cc1 [Example 82, 3-((4-Carbamoylphenoxy)methyl)-4,7-difluorobenzo[b]thiophene-2-carboxylic acid] | 9.29 °C | > 50 µM | > 50 µM | 3.15 °C |  |  | 
16 | NC(=O)c1ccc(OCc2c(C(=O)O)sc3ccc(F)c(Cl)c23)cc1 [Example 84, 3-((4-Carbamoylphenoxy)methyl)-4-chloro-5-fluorobenzo[b]thiophene-2-carboxylic acid] | 6.48 °C | > 50 µM | > 50 µM | 0.18 °C |  |  | 
17 | NC(=O)c1cc(F)c(OCc2c(C(=O)O)sc3ccc(F)c(Cl)c23)c(F)c1 [Example 86, 3-((4-Carbamoyl-2,6-difluorophenoxy)methyl)-4-chloro-5-fluorobenzo[b]thiophene-2-carboxylic acid] | 10.1 °C | > 50 µM | > 50 µM | 3.33 °C |  |  | 
18 | NC(=O)c1cc(F)c(OCc2c(C(=O)O)sc3cccc(Cl)c23)c(CO)c1 [Example 111, 3-((4-Carbamoyl-2-fluoro-6-(hydroxymethyl)phenoxy)methyl)-4-chlorobenzo[b]thiophene-2-carboxylic acid] |  |  | 17.2 µM |  | 10.88 °C | 16.2 µM | 
19 | CN(C)C(=O)COC(=O)c1sc2cccc(Cl)c2c1COc1c(F)cc(C(N)=O)cc1F [Example 127, 2-(Dimethylamino)-2-oxoethyl 3-((4-carbamoyl-2,6-difluorophenoxy)methyl)-4-chlorobenzo[b]thiophene-2-carboxylate] |  |  | 0.229 µM |  | −2.44 °C | 0.026 µM | 
20 | CCOP(=O)(COC(=O)c1sc2cccc(Cl)c2c1COc1c(F)cc(C(N)=O)cc1F)OCC [Example 143, (Diethoxyphosphoryl)methyl 3-((4-carbamoyl-2,6-difluorophenoxy)methyl)-4-chlorobenzo[b]thiophene-2-carboxylate] |  |  |  |  |  |  | DSF huSTING (HAQ) ΔTm (° C.) [1]: −2.10 °C; DSF huSTING (WT) ΔTm (° C.) [4]: −1.93 °C; EC50 [2]: 0.018 µM; EC50 [3]: 0.381 µM
21 | NC(=O)CNC(=O)c1sc2cccc(Cl)c2c1COc1c(F)cc(C(N)=O)cc1F [Example 148, N-(2-Amino-2-oxoethyl)-3-((4-carbamoyl-2,6-difluorophenoxy)methyl)-4-chlorobenzo[b]thiophene-2-carboxamide] |  |  | > 40 µM |  | −0.37 °C | 4.07 µM | 
22 | CC(=O)NCCOC(=O)c1sc2cccc(Cl)c2c1COc1c(F)cc(C(N)=O)cc1F [Example 159, 2-Acetamidoethyl 3-((4-carbamoyl-2,6-difluorophenoxy)methyl)-4-chlorobenzo[b]thiophene-2-carboxylate] |  |  | 0.325 µM |  | −1.02 °C | 0.044 µM | 
23 | COC(=O)NCCOC(=O)c1sc2cccc(Cl)c2c1COc1c(F)cc(C(N)=O)cc1F [Example 160, 2-((Methoxycarbonyl)amino)ethyl 3-((4-carbamoyl-2,6-difluorophenoxy)methyl)-4-chlorobenzo[b]thiophene-2-carboxylate] |  |  | 0.298 µM |  | −1.05 °C | 0.035 µM | 
24 | COC(=O)N(C)CCOC(=O)c1sc2cccc(Cl)c2c1COc1c(F)cc(C(N)=O)cc1F [Example 161, 2-((Methoxycarbonyl)(methyl)amino)ethyl 3-((4-carbamoyl-2,6-difluorophenoxy)methyl)-4-chlorobenzo[b]thiophene-2-carboxylate] |  |  | 0.669 µM |  | −1.76 °C | 0.062 µM | 
25 | COCCCOC(=O)c1sc2cccc(Cl)c2c1COc1c(F)cc(C(N)=O)cc1F [Example 162, 3-Methoxypropyl 3-((4-carbamoyl-2,6-difluorophenoxy)methyl)-4-chlorobenzo[b]thiophene-2-carboxylate] |  |  | 0.302 µM |  | −1.01 °C | 0.041 µM | 
26 | NC(=O)c1ccc(OCc2c(C(=O)NCCc3ccccc3)sc3cccc(Br)c23)cc1 [Example 167, 4-Bromo-3-((4-carbamoylphenoxy)methyl)-N-phenethylbenzo[b]thiophene-2-carboxamide] |  |  | 25.6 µM |  | 2.51 °C | 23.2 µM | 

Source: patent publication US11613525B2 (CTXT PTY LIMITED, priority 2018, dated 2023)
